# Numbered stars: 1 amine (or outer) side, 2 acyl side, 3 side chain; on linkers, the order of the positions; unused ones are H or OH. Square brackets hold non-standard residues; d marks the D form. Ends that are not written are not given here. γGlu = O=C(O)[C@H](CCC(=O)[*:2])N[*:1]; Orn = NCCC[C@H](N)C(=O)O; Abu = CC[C@H](N)C(=O)O
# Assays:
# human calcium receptor = target: T1, human calcium receptor (Homo sapiens, UniProt P41180); assay: Calcium receptor activation activity: Ca ion concentration-dependent Cl ionic current in Xenopus laevis oocyte expression system; format: cell-based; conditions: for calcium receptor activation activity (Ca ion concentration-dependent Cl response current): oocytes voltage-clamped at −70 mV; for Activity (lowest concentration for which current was detected): added at 1000, 300, 100, 30, 10, 3, 1, 0.3 and 0.1 μM
# T1 construct: expressed in transfected cells; host or cells: Xenopus laevis oocytes microinjected with cRNA; gene amplified by PCR from human kidney cDNA (Clontech)
# T1 sequence (P41180 20-1078): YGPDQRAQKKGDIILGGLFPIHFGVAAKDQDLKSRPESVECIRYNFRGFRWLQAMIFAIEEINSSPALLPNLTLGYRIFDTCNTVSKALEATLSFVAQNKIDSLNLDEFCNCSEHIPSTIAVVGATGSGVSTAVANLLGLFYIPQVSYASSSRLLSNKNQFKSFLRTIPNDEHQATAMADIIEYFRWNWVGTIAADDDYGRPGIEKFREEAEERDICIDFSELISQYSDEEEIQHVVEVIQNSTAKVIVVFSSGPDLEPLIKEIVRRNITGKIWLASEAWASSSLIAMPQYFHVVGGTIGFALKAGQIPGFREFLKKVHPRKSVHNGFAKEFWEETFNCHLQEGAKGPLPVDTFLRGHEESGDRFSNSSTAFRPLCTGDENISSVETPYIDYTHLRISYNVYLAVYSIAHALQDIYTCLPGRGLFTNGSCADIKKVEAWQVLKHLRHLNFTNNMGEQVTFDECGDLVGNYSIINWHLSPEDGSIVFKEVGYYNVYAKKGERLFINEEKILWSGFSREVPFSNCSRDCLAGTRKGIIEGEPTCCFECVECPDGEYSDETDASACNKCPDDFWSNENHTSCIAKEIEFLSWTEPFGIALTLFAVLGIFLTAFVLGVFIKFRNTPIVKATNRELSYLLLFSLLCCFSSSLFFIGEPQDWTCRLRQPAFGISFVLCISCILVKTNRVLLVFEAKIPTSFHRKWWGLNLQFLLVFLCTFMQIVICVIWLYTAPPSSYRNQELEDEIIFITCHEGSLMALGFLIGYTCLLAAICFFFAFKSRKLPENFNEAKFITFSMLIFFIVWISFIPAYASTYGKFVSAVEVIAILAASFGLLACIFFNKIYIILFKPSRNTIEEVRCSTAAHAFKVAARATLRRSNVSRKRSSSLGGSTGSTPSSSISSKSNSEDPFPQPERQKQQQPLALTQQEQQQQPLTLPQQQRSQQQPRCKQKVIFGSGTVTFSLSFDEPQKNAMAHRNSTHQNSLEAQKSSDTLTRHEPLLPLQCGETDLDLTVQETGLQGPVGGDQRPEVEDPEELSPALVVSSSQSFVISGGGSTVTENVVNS
# Protocol: To evaluate calcium receptor activation activity, a Ca ion concentration-dependent Cl ionic current measuring method using a Xenopus laevis oocyte expression system was used. If each activator is added to Xenopus laevis oocytes expressing the calcium receptor, intracellular Ca ions increase. Then, the Ca ion concentration-dependent Cl channel opens, and the intracellular current value changes as an ionic current. By measuring the change in this intracellular current value, the presence or absence of calcium receptor activation activity can be determined.
# Specifically, the abdomen of Xenopus laevis was opened, and an egg batch was taken out and treated with a 1% collagenase solution at 20° C. for 2 hours to obtain individual oocytes. Into the oocytes, 50 nl of 1 μg/μl receptor cRNA or 50 nl of sterilized water per oocyte was introduced by using a micro glass capillary, and the oocytes were cultured at 18° C. for 2 or 3 days. For the culture, a solution obtained by adding 2 mM pyruvic acid, 10 U/ml of penicillin, and 10 μg/ml of streptomycin to the solution in Example 2 was used. After the culture, a test solution was added to the oocytes containing either the cRNA or sterilized water. Electrophysiological measurement was performed by using an amplifier, Geneclamp500 (Axon), and recording software, AxoScope 9.0 (Axon). The oocytes were voltage-clamped at −70 mV by the double electrode voltage clamp method, and the intracellular current was measured via the Ca ion concentration-dependent Cl ion channel. The maximum value of the intracellular current was considered as the response current value.
# Calcium receptor activation activity of L-amino acids was evaluated by using the method described in Example 13. That is, oocytes containing either cRNA of the calcium receptor or sterilized water were prepared, and voltage-clamped at −70 mV by the double electrode voltage clamp method. To the voltage-clamped oocytes, alanine (10 mM), arginine (10 mM), asparagine (10 mM), aspartic acid (10 mM), cysteine (10 mM), glutamine (10 mM), glutamic acid (10 mM), glycine (10 mM), histidine (10 mM), isoleucine (10 mM), leucine (10 mM), lysine (10 mM), methionine (10 mM), phenylalanine (10 mM), proline (10 mM), serine (10 mM), threonine (10 mM), tryptophan (10 mM), tyrosine (10 mM), valine (10 mM), ornithine (10 mM), taurine (10 mM), or hydroxyproline (10 mM) was added, and Ca ion concentration-dependent Cl response current was measured. […] As for the aforementioned amino acids, the activation activity was reported in Proc. Natl. Acad. Sci. USA, 2000 Apr. 25, 97(9):4814-9.
# Calcium receptor activation activity of D-cysteine was evaluated by using the method described in Example 13. That is, oocytes containing either cRNA of the calcium receptor or sterilized water were prepared, and voltage-clamped at −70 mV by the double electrode voltage clamp method. To the voltage-clamped oocytes, D-cysteine (10 mM), L-cysteine (10 mM), D-tryptophan (10 mM), or L-tryptophan (10 mM) was added, and Ca ion concentration-dependent Cl response current was measured.
# Calcium receptor activation activity of peptides was evaluated by using the method described in Example 13. That is, oocytes containing either cRNA of the calcium receptor or sterilized water were prepared, and voltage-clamped at −70 mV by the double electrode voltage clamp method.
# Calcium receptor activation activity of peptides was evaluated in the same manner as that of Example 17. Each of the peptides shown in Table 2 was added to voltage-clamped oocytes at 1000 μM, 300 μM, 100 μM, 30 μM, 10 μM, 3 μM, 1 μM, 0.3 μM, and 0.1 μM, and Ca ion concentration-dependent Cl response current was measured.
# [1] = Quantitative sensory evaluation test of kokumi-imparting activity in water with sodium glutamate, inosine monophosphate and sodium chloride; format: in vivo, human; conditions: control 0, glutathione 3 points
# Protocol: Sample solutions that became acidic after dissolution of the samples were adjusted to pH 6.8 to 7.2 with NaOH before use. Sensory evaluation scores were used for evaluation based on the control sample (0 points) and the glutathione sample (3 points), and the test was performed with n=3.
# The sample solutions that became acidic after dissolution of the samples were adjusted to pH 6.8 to 7.2 with NaOH before use. Sensory evaluation scores were used for evaluation based on the control sample (0 points) and the glutathione sample (3 points), and the test was performed with n=5.
# Sample solutions that became acidic after dissolution of the samples were adjusted to pH 6.8 to 7.2 with NaOH before use. Sensory evaluation scores were used for evaluation based on the control sample (0 points) and the glutathione sample (3 points), and the test was performed with n=12.
molecule,measurement,setting,value
N[C@H](CS)C(=O)O [D-cysteine],calcium receptor activation activity (Ca ion concentration-dependent Cl response current),human calcium receptor; 10 mM amino acid,definitive calcium receptor activation activity
"N[C@@H](CS)C(=O)O [cysteine, reference compound]",calcium receptor activation activity (Ca ion concentration-dependent Cl response current),human calcium receptor; 10 mM amino acid,definite calcium receptor activation activity
"N[C@@H](Cc1c[nH]cn1)C(=O)O [histidine, reference compound]",calcium receptor activation activity (Ca ion concentration-dependent Cl response current),human calcium receptor; 10 mM amino acid,definite calcium receptor activation activity
"N[C@@H](Cc1ccccc1)C(=O)O [phenylalanine, reference compound]",calcium receptor activation activity (Ca ion concentration-dependent Cl response current),human calcium receptor; 10 mM amino acid,definite calcium receptor activation activity
"N[C@@H](Cc1c[nH]c2ccccc12)C(=O)O [tryptophan, reference compound]",calcium receptor activation activity (Ca ion concentration-dependent Cl response current),human calcium receptor; 10 mM amino acid,definite calcium receptor activation activity
"N[C@@H](Cc1ccc(O)cc1)C(=O)O [tyrosine, reference compound]",calcium receptor activation activity (Ca ion concentration-dependent Cl response current),human calcium receptor; 10 mM amino acid,definite calcium receptor activation activity
N[C@@H](CCC(=O)N[C@@H](CSN=O)C(=O)NCC(=O)O)C(=O)O [γ-Glu-Cys(SNO)-Gly],calcium receptor activation activity (Ca ion concentration-dependent Cl response current),human calcium receptor; 50 μM peptide,definitive calcium receptor activation activity
Asp-Gly,calcium receptor activation activity (Ca ion concentration-dependent Cl response current),human calcium receptor; 1 mM peptide,definitive calcium receptor activation activity
Cys-Gly,calcium receptor activation activity (Ca ion concentration-dependent Cl response current),human calcium receptor; 1 mM peptide,definitive calcium receptor activation activity
Cys-Met,calcium receptor activation activity (Ca ion concentration-dependent Cl response current),human calcium receptor; 1 mM peptide,definitive calcium receptor activation activity
Glu-Cys,calcium receptor activation activity (Ca ion concentration-dependent Cl response current),human calcium receptor; 50 μM peptide,definitive calcium receptor activation activity
Gly-Cys,calcium receptor activation activity (Ca ion concentration-dependent Cl response current),human calcium receptor; 500 μM peptide,definitive calcium receptor activation activity
Leu-Asp,calcium receptor activation activity (Ca ion concentration-dependent Cl response current),human calcium receptor; 1 mM peptide,definitive calcium receptor activation activity
[γGlu]-Ala,Intensity of kokumi: Aftertaste,"[1]; Table 5, 0.1 g/dl, n=3",0.2 points
same,Intensity of kokumi: First and middle taste,"[1]; Table 5, 0.1 g/dl, n=3",0.5 points
same,calcium receptor activation activity (Ca ion concentration-dependent Cl response current),human calcium receptor; 50 μM peptide,definitive calcium receptor activation activity
[γGlu]-Cys,Intensity of kokumi: Aftertaste,"[1]; Table 6, 0.1 g/dl, n=5",2.0 points
same,Intensity of kokumi: First and middle taste,"[1]; Table 6, 0.1 g/dl, n=5",2.0 points
same,calcium receptor activation activity (Ca ion concentration-dependent Cl response current),human calcium receptor; 50 μM peptide,definitive calcium receptor activation activity
[γGlu]-Gly,calcium receptor activation activity (Ca ion concentration-dependent Cl response current),human calcium receptor; 500 μM peptide,definitive calcium receptor activation activity
[γGlu]-Gly-Gly,Activity (lowest concentration for which current was detected),human calcium receptor,30 µM
[γGlu]-Met,Intensity of kokumi: Aftertaste,"[1]; Table 5, 0.1 g/dl, n=3",0.4 points
same,Intensity of kokumi: First and middle taste,"[1]; Table 5, 0.1 g/dl, n=3",1.5 points
same,calcium receptor activation activity (Ca ion concentration-dependent Cl response current),human calcium receptor; 500 μM peptide,definitive calcium receptor activation activity
[γGlu]-Ser-Gly,Activity (lowest concentration for which current was detected),human calcium receptor,30 µM
[γGlu]-Thr,calcium receptor activation activity (Ca ion concentration-dependent Cl response current),human calcium receptor; 50 μM peptide,definitive calcium receptor activation activity
[γGlu]-Val,Intensity of kokumi: Aftertaste,"[1]; Table 5, 0.1 g/dl, n=3",1.0 points
same,Intensity of kokumi: First and middle taste,"[1]; Table 5, 0.1 g/dl, n=3",3.0 points
same,Intensity of kokumi: Aftertaste,"[1]; Table 6, 0.1 g/dl, n=5",1.0 points
same,Intensity of kokumi: First and middle taste,"[1]; Table 6, 0.1 g/dl, n=5",3.0 points
same,calcium receptor activation activity (Ca ion concentration-dependent Cl response current),human calcium receptor; 50 μM peptide,definitive calcium receptor activation activity
[γGlu]-Val-Arg,Activity (lowest concentration for which current was detected),human calcium receptor,1000 µM
[γGlu]-Val-Asn,Activity (lowest concentration for which current was detected),human calcium receptor,30 µM
[γGlu]-Val-Cys,Activity (lowest concentration for which current was detected),human calcium receptor,10 µM
[γGlu]-Val-Gln,Activity (lowest concentration for which current was detected),human calcium receptor,10 µM
[γGlu]-Val-Glu,Activity (lowest concentration for which current was detected),human calcium receptor,1000 µM
[γGlu]-Val-His,Activity (lowest concentration for which current was detected),human calcium receptor,100 µM
[γGlu]-Val-Lys,Activity (lowest concentration for which current was detected),human calcium receptor,1000 µM
[γGlu]-Val-Met,Activity (lowest concentration for which current was detected),human calcium receptor,1000 µM
[γGlu]-Val-Phe,Activity (lowest concentration for which current was detected),human calcium receptor,30 µM
[γGlu]-Val-Pro,Activity (lowest concentration for which current was detected),human calcium receptor,30 µM
[γGlu]-Val-Ser,Activity (lowest concentration for which current was detected),human calcium receptor,30 µM
[γGlu]-Val-Thr,Activity (lowest concentration for which current was detected),human calcium receptor,1000 µM
[γGlu]-Val-Val,Activity (lowest concentration for which current was detected),human calcium receptor,1000 µM
[γGlu]-Val-[Orn],Activity (lowest concentration for which current was detected),human calcium receptor,100 µM
[γGlu]-[Abu]-Gly,Intensity of kokumi: Aftertaste,"[1]; Table 7, 0.01 g/dl, n=12",2.0 points
same,Intensity of kokumi: First and middle taste,"[1]; Table 7, 0.01 g/dl, n=12",3.0 points
same,Activity (lowest concentration for which current was detected),human calcium receptor,3 µM
[γGlu]-[γGlu]-Val,Activity (lowest concentration for which current was detected),human calcium receptor,1000 µM
γ-Glu-Cys(S-Me)-Gly,Activity (lowest concentration for which current was detected),human calcium receptor,3 µM
γ-Glu-Cys(S-allyl)-Gly,Activity (lowest concentration for which current was detected),human calcium receptor,100 µM
γ-Glu-Orn,calcium receptor activation activity (Ca ion concentration-dependent Cl response current),human calcium receptor; 500 μM peptide,definitive calcium receptor activation activity
γ-Glu-Tau,Activity (lowest concentration for which current was detected),human calcium receptor,300 µM
γ-Glu-Val-Asp,Activity (lowest concentration for which current was detected),human calcium receptor,1000 µM
γ-Glu-t-Leu,Activity (lowest concentration for which current was detected),human calcium receptor,100 µM

# — patent US8420144B2, “Kokumi-imparting agent, method of using, and compositions containing same” (Ajinomoto Co., Inc., priority 2005, dated 2013)
